Results from patent US4921855A, “New Histidyl amino acid derivatives, and pharmaceutical composition comprising the same” (Fujisawa Pharmaceutical Co., Ltd., priority 1987, dated 1990).

Legend:
[1] = test system: mean arterial blood pressure (MAP); assay: Hypotensive effect after oral administration to conscious sodium-depleted cynomolgus monkeys (maximum percentage fall of MAP); format: in vivo, cynomolgus monkeys (Macaca fascicularis); settings: 0-6 hours
Procedure: (§1) Male or female cynomolgus monkeys (Macaca fascicularis) weighing about 2.5-3.5 kg were used. Sodium depletion was achieved by administering furosemide, 15 mg/kg subcutaneously one day before and then 10 mg/kg intravenously 30 minutes before the administration of the test compound.
(§2) Test compounds were dissolved in diluted equimolar hydrochloric acid (pH 5-6) and orally administered to conscious and trained monkeys placed in restraining chairs with pneumatic cuff positioned around the arm for oscillometric measurement of mean arterial blood pressure (MAP) (Model BP-203 NPJ, manufactured by Nippon Colin).
The Map was measured at 0 (predosing base line), 0.5, 1, 2, 3, 4 and 6 hours after administration of the test compound. The maximum hypotensive effect was calculated as the maximum percentage fall of MAP from the pretreatment value.

plasma renin = assay: Inhibition of plasma renin activity (PRA) after oral administration to sodium-depleted cynomolgus monkeys; format: in vivo, cynomolgus monkeys (Macaca fascicularis); settings: sodium-depleted conscious monkeys, 0-6 hours
Procedure: as §1, §2
Blood samples were collected at 0, 0.5, 1, 2, 4 and 6 hours after dosing from the antecubital vein of the monkey into disodium salt of EDTA coated tubes, centrifuged for 10 min. (3000 rpm, 4° C.) and plasma was obtained for determination of plasma renin activity (PRA). PRA was measured as the rate of Ang I formation with the same principle as illustrated in Test 1. 100 μl of sample plasma was mixed with 100 μl of the solution of angiotensinase inhibitors (3 mM 8-hydroxyquinoline sulfate and 5 mM 2,3-dimercaptopropanol, SB-REN-1, SORIN BIOMEDICA, Italy). Half (100 μl) of the mixture was incubated at 37° C. for one hour and Ang I formed was determined by a commercial RIA kit (DINABOTT). The remaining half (100 μl) of the reaction mixture was kept at 4° C. for one hour to measure and correct for the preexisting Ang I in the plasma. Percentage inhibition of PRA was calculated by the following formula: [formula]
A37 : the amount of angiotensin I formed by incubation at 37° C. of plasma collected before dosing the test compound
A4 : the amount of angiotensin I formed by keeping at 4° C. of plasma collected before dosing the test compound
D37 : the amount of angiotensin I formed by incubation at 37° C. of plasma collected after dosing the test compound
D4 : the amount of angiotensin I formed by keeping at 4° C. of plasma collected after dosing the test compound.

renin = molecular target: T1, renin (Homo sapiens, UniProt P00797); assay: Inhibition of human plasma renin activity (angiotensin I formation, RIA); format: biochemical; settings: endogenous renin and angiotensinogen, pH 6.0, 37° C, 90 minutes, RIA of Ang I
T1 construct: endogenous renin and angiotensinogen in plasma; from tissue; host or cells: pooled human plasma (EDTA) from male volunteers
T1 sequence (P00797 67-406): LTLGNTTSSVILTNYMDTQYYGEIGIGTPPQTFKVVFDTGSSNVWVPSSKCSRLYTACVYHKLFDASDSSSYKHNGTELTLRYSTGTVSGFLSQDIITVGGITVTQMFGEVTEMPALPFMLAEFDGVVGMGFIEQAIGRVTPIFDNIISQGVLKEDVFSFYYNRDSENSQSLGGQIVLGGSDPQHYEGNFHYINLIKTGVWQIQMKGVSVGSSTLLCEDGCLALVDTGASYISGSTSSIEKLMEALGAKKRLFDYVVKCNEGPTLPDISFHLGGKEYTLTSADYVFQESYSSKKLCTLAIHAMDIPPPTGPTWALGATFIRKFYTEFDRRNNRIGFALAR
Procedure: Human plasma was collected from male volunteers pretreated with no drugs and used as a pool. Disodium salt of ethylenediaminetetraacetic acid (EDTA) was used as the anticoagulant. Plasma renin activity was measured as the rate of angiotensin I (Ang I) formation after incubation (37° C) of the endogenous renin and angiotensinogen in plasma at pH 6.0. The incubation mixture contained 250 μl of plasma, 5 μl of (phenylmethyl)sulfonyl fluoride, 30 μl of buffer (sodium, potassium-phosphate, pH 6.0), and 15 μl of an appropriate concentration of test compound in 50% ethyl alcohol-water vehicle. The Ang I formed after 90 minutes of incubation was measured by radioimmunoassay (RIA) which was carried out with a commercial kit, RENCTK 100 (manufactured by Commissariat A L'energic Atomique). Samples were incubated in duplicate and each tube was measured in duplicate in the RIA. Percentage inhibition of plasma renin activity was calculated by comparing the amount of Ang I produced with and without a test compound. The concentration of test compound that inhibited plasma renin activity by 50% (IC50) was determined by Probit method.

Structure (SMILES) | Maximum hypotensive effect (%) ([1]; 32 mg/kg (po)) | Maximum inhibition of PRA (%) (plasma renin; 32 mg/kg (po)) | IC50 (renin) [nM] | Maximum hypotensive effect (%) ([1]; 3.2 mg/kg (po)) | Maximum inhibition of PRA (%) (plasma renin; 3.2 mg/kg (po))
CC(C)CC[C@H](O)[C@H](CC1CCCCC1)NC(=O)[C@H](Cc1c[nH]cn1)N(C)C(=O)[C@H](Cc1ccccc1)OC(=O)N(C)CCC(=O)N1CCOCC1 [(5)] | 18 | 92 | 25 | – | –
CC(C)CC[C@H](O)[C@H](CC1CCCCC1)NC(=O)[C@H](Cc1c[nH]cn1)N(C)C(=O)[C@H](Cc1ccccc1)OC(=O)N(C)CCN(C)C(=O)N1CCOCC1 [(23)] | – | – | 4 | 19 | 99
CC(C)CC[C@H](O)[C@H](CC1CCCCC1)NC(=O)[C@H](Cc1c[nH]cn1)N(C)C(=O)[C@H](Cc1ccccc1)OC(=O)N(C)CCN(C)C(=O)C(C)C [(24)] | – | – | 8.7 | 15 | 93
